According to ChEMBL document CHEMBL3992554, “Incorporation of arginine mimetic residue into peptides for recognition of double stranded nucleic acid structure: Binding and aggregation studies” (Bioorg Med Chem, 2017):
Active and inactive are the calls of the source. No cut-off for these calls is given here. Peptide text beside a SMILES is read from it. * marks the point of attachment. Pyrrole2CO(5-CO-guanidino) = N=C(N)NC(=O)c1ccc(C(=O)*)[nH]1

Assays:
[1] = Induction of poly(rA).(rU) RNA duplex aggregation (unknown origin) in pH 7.4 sodium cacodylate buffer at peptide to polynucleotide ratio of 0.5 by CD titration method
Bos taurus [2] = species on record: Bos taurus; experiment: Binding affinity to calf thymus duplex DNA in pH 7.4 sodium cacodylate buffer assessed as change in melting temperature at peptide to polynucleotide ratio of 0.3 by thermal denaturation assay
[3] = Binding affinity to poly(dA-dT)2 DNA (unknown origin) in pH 7.4 sodium cacodylate buffer assessed as positive induced CD band at peptide to polynucleotide ratio of 0.4 by CD titration method
[4] = Binding affinity to poly(rA).(rU) RNA duplex (unknown origin) in pH 7.4 sodium cacodylate buffer by UV-Visible titration method
[5] = Induction of poly(dA-dT)2 DNA aggregation (unknown origin) in pH 7.4 sodium cacodylate buffer at peptide to polynucleotide ratio of 0.5 by CD titration method
[6] = Binding affinity to poly(dA-dT)2 DNA (unknown origin) in pH 7.4 sodium cacodylate buffer assessed as change in melting temperature at peptide to polynucleotide ratio of 0.5 by thermal denaturation assay
Bos taurus [7] = species on record: Bos taurus; experiment: Induction of calf thymus duplex DNA aggregation in pH 7.4 sodium cacodylate buffer at peptide to polynucleotide ratio of 0.5 by CD titration method
[8] = Aqueous solubility of the compound in water; format: physicochemical; details: buffer
[9] = Induction of poly(dG-dC)2 DNA aggregation (unknown origin) in pH 7.4 sodium cacodylate buffer at peptide to polynucleotide ratio of 0.5 by CD titration method
[10] = Binding affinity to poly(rA).(rU) RNA duplex (unknown origin) in pH 7.4 sodium cacodylate buffer assessed as change in melting temperature at peptide to polynucleotide ratio of 0.3 by thermal denaturation assay
[11] = Binding affinity to poly(dG-dC)2 DNA (unknown origin) in pH 7.4 sodium cacodylate buffer at 5.35 uM by fluorimetric titration method
Bos taurus [12] = species on record: Bos taurus; experiment: Binding affinity to calf thymus duplex DNA in pH 7.4 sodium cacodylate buffer assessed as positive induced CD band at peptide to polynucleotide ratio of 0.4 by CD titration method
[13] = Binding affinity to poly(dA-dT)2 DNA (unknown origin) in pH 7.4 sodium cacodylate buffer assessed as change in melting temperature at peptide to polynucleotide ratio of 0.3 by thermal denaturation assay
[14] = Aggregation of the compound in water at 25 to 95 degC by UV-Visible titration method; format: physicochemical; details: buffer
[15] = Binding affinity to poly(rA).(rU) RNA duplex (unknown origin) in pH 7.4 sodium cacodylate buffer assessed as change in melting temperature at peptide to polynucleotide ratio of 0.5 by thermal denaturation assay
Bos taurus [16] = species on record: Bos taurus; experiment: Binding affinity to calf thymus duplex DNA in pH 7.4 sodium cacodylate buffer by UV-Visible titration method
Bos taurus [17] = species on record: Bos taurus; experiment: Binding affinity to calf thymus duplex DNA in pH 7.4 sodium cacodylate buffer assessed as change in melting temperature at peptide to polynucleotide ratio of 0.5 by thermal denaturation assay
[18] = Binding affinity to poly(rA).(rU) RNA duplex (unknown origin) in pH 7.4 sodium cacodylate buffer assessed as positive induced CD band at peptide to polynucleotide ratio of 0.4 by CD titration method
[19] = Binding affinity to poly(dA-dT)2 DNA (unknown origin) in pH 7.4 sodium cacodylate buffer by UV-Visible titration method
[20] = Binding affinity to poly(dA-dT)2 DNA (unknown origin) in pH 7.4 sodium cacodylate buffer at 5.35 uM by fluorimetric titration method
[21] = Binding affinity to poly(dG-dC)2 DNA (unknown origin) in pH 7.4 sodium cacodylate buffer assessed as positive induced CD band at peptide to polynucleotide ratio of 0.4 by CD titration method
[22] = Binding affinity to poly(dG-dC)2 DNA (unknown origin) in pH 7.4 sodium cacodylate buffer by UV-Visible titration method
[23] = Chemical stability in water at +8 degC; format: physicochemical; details: buffer
[24] = Binding affinity to poly(rA).(rU) RNA duplex (unknown origin) in pH 7.4 sodium cacodylate buffer at 5.35 uM by fluorimetric titration method
[25] = Binding affinity to poly(rA).(rU) RNA duplex (unknown origin) in pH 7.4 sodium cacodylate buffer at peptide to polynucleotide ratio of 0.2 to 2.4 by CD titration method
[26] = Binding affinity to poly(dG-dC)2 DNA (unknown origin) in pH 7.4 sodium cacodylate buffer at peptide to polynucleotide ratio of 0.2 to 2.4 by CD titration method
[27] = Binding affinity to poly(dA-dT)2 DNA (unknown origin) in pH 7.4 sodium cacodylate buffer at peptide to polynucleotide ratio of 0.2 to 2.1 by CD titration method
Bos taurus [28] = species on record: Bos taurus; experiment: Binding affinity to calf thymus duplex DNA in pH 7.4 sodium cacodylate buffer at peptide to polynucleotide ratio of 0.2 to 2.1 by CD titration method
[29] = Binding affinity to poly(dA-dT)2 DNA (unknown origin) in pH 7.4 sodium cacodylate buffer at peptide to polynucleotide ratio of 0.1 to 1.1 by CD titration method
[30] = Binding affinity to poly(dA-dT)2 DNA (unknown origin) in pH 7.4 sodium cacodylate buffer by ITC
Bos taurus [31] = species on record: Bos taurus; experiment: Binding affinity to calf thymus duplex DNA in pH 7.4 sodium cacodylate buffer by ITC
[32] = Binding affinity to poly(rA).(rU) RNA duplex (unknown origin) in pH 7.4 sodium cacodylate buffer by ITC
[33] = Binding affinity to poly(dG-dC)2 DNA (unknown origin) in pH 7.4 sodium cacodylate buffer by ITC
[34] = Binding affinity to poly(dA-dT)2 DNA (unknown origin) in pH 7.4 sodium cacodylate buffer assessed as negative induced band at peptide to polynucleotide ratio of >0.8 by CD titration method
[35] = Binding affinity to poly(dG-dC)2 DNA (unknown origin) in pH 7.4 sodium cacodylate buffer at peptide to polynucleotide ratio of 0.1 to 0.6 by CD titration method
[36] = Binding affinity to poly(dA-dT)2 DNA (unknown origin) in pH 7.4 sodium cacodylate buffer at peptide to polynucleotide ratio of <0.4 by CD titration method
Bos taurus [37] = species on record: Bos taurus; experiment: Induction of calf thymus duplex DNA aggregation in pH 7.4 sodium cacodylate buffer at 0.3 to 1.5 equiv by dynamic light scattering
Bos taurus [38] = species on record: Bos taurus; experiment: Binding affinity to calf thymus duplex DNA in pH 7.4 sodium cacodylate buffer at peptide to polynucleotide ratio of 0.1 to 0.5 by CD titration method
[39] = Binding affinity to poly(dA-dT)2 DNA (unknown origin) in pH 7.4 sodium cacodylate buffer by fluorimetric titration method
Bos taurus [40] = species on record: Bos taurus; experiment: Induction of calf thymus duplex DNA aggregation in pH 7.4 sodium cacodylate buffer at 0.3 to 0.5 equiv after 5 mins by atomic force microscopic method
[41] = Binding affinity to poly(dG-dC)2 DNA (unknown origin) in pH 7.4 sodium cacodylate buffer by fluorimetric titration method
[42] = Binding affinity to poly(rA).(rU) RNA duplex (unknown origin) in pH 7.4 sodium cacodylate buffer at peptide to polynucleotide ratio of 0.1 to 0.95 by CD titration method
[43] = Binding affinity to poly(rA).(rU) RNA duplex (unknown origin) in pH 7.4 sodium cacodylate buffer by fluorimetric titration method
[44] = Binding affinity to poly(dG-dC)2 DNA (unknown origin) in pH 7.4 sodium cacodylate buffer assessed as positive-negative bisignate ICD band at peptide to polynucleotide ratio of 0.1 to 1.7 by CD titration method
[45] = Binding affinity to poly(rA).(rU) RNA duplex (unknown origin) in pH 7.4 sodium cacodylate buffer assessed as positive-negative bisignate ICD band at peptide to polynucleotide ratio of 0.1 to 1.7 by CD titration method
Bos taurus [46] = species on record: Bos taurus; experiment: Binding affinity to calf thymus duplex DNA in pH 7.4 sodium cacodylate buffer assessed as positive-negative bisignate ICD band at peptide to polynucleotide ratio of 0.2 to 1.3 by CD titration method
[47] = Binding affinity to poly(dA-dT)2 DNA (unknown origin) in pH 7.4 sodium cacodylate buffer assessed as positive-negative bisignate ICD band at peptide to polynucleotide ratio of 0.1 to 1.7 by CD titration method

| Compound | ΔTm (Bos taurus [2]) [°C] | log Ks [4] | ΔTm [6] [°C] | solubility [8] | ΔTm [10] [°C] | ΔTm [13] [°C] | Activity [14] | ΔTm [15] [°C] | log Ks (Bos taurus [16]) | ΔTm (Bos taurus [17]) [°C] | log Ks [19] | log Ks [22] | Stability [23] | other results |
| --- | --- | --- | --- | --- | --- | --- | --- | --- | --- | --- | --- | --- | --- | --- |
| N=C(N)NC(=O)c1ccc(C(=O)NCCCC[C@H](NC(=O)[C@H](CCCCNC(=O)c2ccc(C(=O)NC(=N)N)[nH]2)NC(=O)[C@H](CCCCNC(=O)c2ccc(C(=O)NC(=N)N)[nH]2)NC(=O)[C@@H](N)CCCCNC(=O)c2ccc(C(=O)NC(=N)N)[nH]2)C(N)=O)[nH]1 (H-K(Pyrrole2CO(5-CO-guanidino))K(Pyrrole2CO(5-CO-guanidino))K(Pyrrole2CO(5-CO-guanidino))K(Pyrrole2CO(5-CO-guanidino))-NH2) | 0 | 7 | 0.5 | Soluble | 2.1 | 0.6 | Not Active | 2.4 | 5.4 | 0 | 5.6 | 7.3 | Stable | Activity [1]: Active; Activity [3]: Active; Activity [5]: Active; Activity (Bos taurus [7]): Active; Activity [9]: Active; Activity [11]: Active; Activity (Bos taurus [12]): Active; Activity [18]: Active; Activity [20]: Active; Activity [21]: Active; Activity [24]: Active |
| N=C(N)NC(=O)c1ccc(C(=O)NCCCC[C@H](NC(=O)[C@@H](N)CCCCNC(=O)c2ccc(C(=O)NC(=N)N)[nH]2)C(N)=O)[nH]1 | – | 3.7 | – | Soluble | – | – | Not Active | – | 4.9 | – | 4.6 | – | Stable | Activity [25]: Active; Activity [26]: Active; Activity [27]: Active; Activity (Bos taurus [28]): Active |
| N=C(N)NCCC[C@H](NC(=O)[C@H](CCCNC(=N)N)NC(=O)[C@H](CCCNC(=N)N)NC(=O)[C@@H](N)CCCNC(=N)N)C(N)=O (H-RRRR-NH2) | 1.9 | – | 5 | Soluble | 12.7 | 4.1 | Not Active | 15.3 | – | 2.7 | – | – | Stable | Activity [29]: Active; log Ks [30]: 5.44 to 5.5; log Ks (Bos taurus [31]): 5.33 to 5.6; log Ks [32]: 5.54 to 5.6; log Ks [33]: 5.42 to 5.5 |
| N=C(N)NC(=O)c1ccc(C(=O)NCCCC[C@H](NC(=O)[C@H](CCCCN)NC(=O)[C@H](CCCCN)NC(=O)[C@@H](N)CCCCN)C(N)=O)[nH]1 (H-KKKK(Pyrrole2CO(5-CO-guanidino))-NH2) | 0.5 | 5.3 | 4.9 | Soluble | 7.9 | 3.3 | Not Active | 11.1 | 6.1 | 2.6 | 5.5 | 6.4 | Stable | Activity [34]: Active; Activity [35]: Active; Activity [36]: Active; Activity (Bos taurus [37]): Active; Activity (Bos taurus [38]): Active; Activity [39]: Active; Activity (Bos taurus [40]): Active; Activity [41]: Active; Activity [42]: Active; Activity [43]: Active |
| N=C(N)NC(=O)c1ccc(C(=O)NCCCC[C@H](NC(=O)[C@H](CCCCNC(=O)c2ccc(C(=O)NC(=N)N)[nH]2)NC(=O)c2ccc(C(=O)NC(=N)N)[nH]2)C(N)=O)[nH]1 | – | 4.2 | – | Soluble | – | – | Not Active | – | 4.6 | – | 4.8 | 5.2 | Stable | Activity [44]: Active; Activity [45]: Active; Activity (Bos taurus [46]): Active; Activity [47]: Active |
